# Source: PubChem BioAssay (NCI)
#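 Exposure lasted 48 hours, with cells grown in 96-well plates and compounds tested at five concentrations. GI50 = concentration required for 50% inhibition of growth. At the TGI there is no net growth.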
# Legend:
# Assay in all cases: NCI-60 cell line screen, 48 h
# UACC-257 melanoma = system: UACC-257 melanoma
# OVCAR-5 ovarian = system: OVCAR-5 ovarian
# KM12 colon = system: KM12 colon
# SK-MEL-5 melanoma = system: SK-MEL-5 melanoma
# OVCAR-4 ovarian = system: OVCAR-4 ovarian
# SNB-19 CNS = system: SNB-19 CNS
# 786-0 renal = system: 786-0 renal
# UACC-62 melanoma = system: UACC-62 melanoma
# CAKI-1 renal = system: CAKI-1 renal
# SK-OV-3 ovarian = system: SK-OV-3 ovarian
# RPMI-8226 leukemia = system: RPMI-8226 leukemia
# HL-60(TB) leukemia = system: HL-60(TB) leukemia
# K-562 leukemia = system: K-562 leukemia
# SN12C renal = system: SN12C renal
# SF-295 CNS = system: SF-295 CNS
# MDA-MB-231 breast = system: MDA-MB-231 breast
# SW-620 colon = system: SW-620 colon
# NCI-H522 lung = system: NCI-H522 lung
# MCF7 breast = system: MCF7 breast
# DU-145 prostate = system: DU-145 prostate
# HCC-2998 colon = system: HCC-2998 colon
# HOP-92 NSCLC = system: HOP-92 NSCLC
# BT-549 breast = system: BT-549 breast
# RXF 393 renal = system: RXF 393 renal
# A549 NSCLC = system: A549 NSCLC
# MALME-3M melanoma = system: MALME-3M melanoma
# HCT-116 colon = system: HCT-116 colon
# MOLT-4 leukemia = system: MOLT-4 leukemia
# ACHN renal = system: ACHN renal
smiles,measurement,setting,value
C[C@@H](Oc1cc(-n2cnc3ccc(OCC4CCN(C)CC4)cc32)sc1C(N)=O)c1ccccc1Cl,GI50,UACC-257 melanoma,117 nM
same,TGI,UACC-257 melanoma,4.99 µM
same,GI50,OVCAR-5 ovarian,113 nM
same,TGI,OVCAR-5 ovarian,4.19 µM
same,GI50,KM12 colon,50.7 nM
same,TGI,KM12 colon,2730 nM
same,GI50,SK-MEL-5 melanoma,92.9 nM
same,TGI,SK-MEL-5 melanoma,1260 nM
same,GI50,OVCAR-4 ovarian,477 nM
same,TGI,OVCAR-4 ovarian,4.81 µM
same,GI50,SNB-19 CNS,177 nM
same,TGI,SNB-19 CNS,5.01 µM
same,GI50,786-0 renal,315 nM
same,TGI,786-0 renal,3.92 µM
same,GI50,UACC-62 melanoma,95.7 nM
same,TGI,UACC-62 melanoma,4.07 µM
same,GI50,CAKI-1 renal,774 nM
same,TGI,CAKI-1 renal,4.81 µM
same,GI50,SK-OV-3 ovarian,101 nM
same,TGI,SK-OV-3 ovarian,2930 nM
same,GI50,RPMI-8226 leukemia,94 nM
same,TGI,RPMI-8226 leukemia,4.61 µM
same,GI50,HL-60(TB) leukemia,44 nM
same,TGI,HL-60(TB) leukemia,543 nM
same,GI50,K-562 leukemia,43.7 nM
same,TGI,K-562 leukemia,3.34 µM
same,GI50,SN12C renal,344 nM
same,TGI,SN12C renal,4.52 µM
same,GI50,SF-295 CNS,85.3 nM
same,TGI,SF-295 CNS,3.31 µM
same,GI50,MDA-MB-231 breast,92.4 nM
same,TGI,MDA-MB-231 breast,2150 nM
same,GI50,SW-620 colon,26.7 nM
same,TGI,SW-620 colon,3.27 µM
same,GI50,NCI-H522 lung,38.2 nM
same,TGI,NCI-H522 lung,147 nM
same,GI50,MCF7 breast,12.3 nM
same,TGI,MCF7 breast,3.68 µM
same,GI50,DU-145 prostate,52.8 nM
same,TGI,DU-145 prostate,141 nM
same,GI50,HCC-2998 colon,81.5 nM
same,TGI,HCC-2998 colon,3.27 µM
same,GI50,HOP-92 NSCLC,156 nM
same,TGI,HOP-92 NSCLC,2510 nM
same,GI50,BT-549 breast,397 nM
same,TGI,BT-549 breast,3.58 µM
same,GI50,RXF 393 renal,54.6 nM
same,TGI,RXF 393 renal,2760 nM
same,GI50,A549 NSCLC,91.9 nM
same,TGI,A549 NSCLC,2930 nM
same,GI50,MALME-3M melanoma,2930 nM
same,TGI,MALME-3M melanoma,6.95 µM
same,GI50,HCT-116 colon,61.7 nM
same,TGI,HCT-116 colon,3.05 µM
same,GI50,MOLT-4 leukemia,58.5 nM
same,TGI,MOLT-4 leukemia,3.13 µM
same,GI50,ACHN renal,368 nM
same,TGI,ACHN renal,5.04 µM
